Data published in US20040209959A1, “Congeners of acetaminophen and related compounds as substrates for fatty acid conjugation and their use in treatment of pain, fever and inflammation” (priority 2001, published 2004).

Legend:
[1] = target: T1, vanilloid receptors on vasodilator sensory nerves (Rattus norvegicus, UniProt O35433); test: Vasodilator effect in isolated rat mesenteric artery segments contracted with phenylephrine; conditions: for activation of vanilloid receptors on perivascular sensory nerves: FIG. 7; for inhibition of the effect of capsaicin (antagonist action on vanilloid receptors): 1 mM acetaminophen or 100 μM p-aminophenol for 30 min; for vasorelaxation per se (agonist action on vanilloid receptors): p-aminophenol in the presence of ascorbic acid; for relaxation of arterial segments contracted with phenylephrine: FIG. 7c; for effect on the vasodilator action of AM404: capsazepine 3 μM, ruthenium red 1 μM
T1 construct: from tissue; host or cells: mesenteric arteries from female Wistar-Hannover rats
T1 sequence (O35433 whole entry): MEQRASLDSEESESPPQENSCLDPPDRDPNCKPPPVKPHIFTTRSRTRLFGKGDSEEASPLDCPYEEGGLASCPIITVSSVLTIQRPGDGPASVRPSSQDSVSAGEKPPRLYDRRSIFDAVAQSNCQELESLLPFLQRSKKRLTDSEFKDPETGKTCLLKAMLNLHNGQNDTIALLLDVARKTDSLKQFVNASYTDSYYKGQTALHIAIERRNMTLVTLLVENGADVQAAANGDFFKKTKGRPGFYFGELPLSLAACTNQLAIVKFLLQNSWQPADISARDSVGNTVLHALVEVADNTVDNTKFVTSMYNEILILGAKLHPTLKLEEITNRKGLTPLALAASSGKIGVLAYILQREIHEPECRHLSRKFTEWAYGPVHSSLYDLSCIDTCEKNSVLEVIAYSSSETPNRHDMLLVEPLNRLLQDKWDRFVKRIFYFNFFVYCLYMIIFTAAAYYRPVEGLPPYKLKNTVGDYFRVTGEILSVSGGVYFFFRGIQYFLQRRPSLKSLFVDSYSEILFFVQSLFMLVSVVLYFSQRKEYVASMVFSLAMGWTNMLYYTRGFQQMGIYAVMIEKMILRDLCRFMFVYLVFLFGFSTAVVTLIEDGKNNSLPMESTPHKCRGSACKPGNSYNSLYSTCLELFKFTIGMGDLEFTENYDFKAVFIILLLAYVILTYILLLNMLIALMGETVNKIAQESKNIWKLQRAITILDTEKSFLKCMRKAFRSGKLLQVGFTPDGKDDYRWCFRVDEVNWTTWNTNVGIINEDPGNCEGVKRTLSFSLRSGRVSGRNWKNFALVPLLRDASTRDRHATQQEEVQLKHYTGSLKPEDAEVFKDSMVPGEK
Description: Recording of tension. Experiments were performed on mesenteric arteries from female Wistar-Hannover rats (250 g) as described (48). Briefly, the arteries were cut into ring segments and mounted in tissue baths, containing aerated physiological salt solution (5% CO2 and 95% O2; 37° C.; pH 7.4). […] We studied relaxant responses in preparations contracted with phenylephrine. When stable contractions were obtained, substances were added cumulatively to determine concentration-response relationships.
Calculations and statistics. Data are presented as means ±S.E.M. (vertical lines in figures), and n indicates the number of animals unless otherwise stated. GraphPad Prism 3.0 software was used for curve fitting (non-linear regressions) and calculations of pEC50 values. Mann-Whitney U-test or Student's t-test on log transformed values was used for statistical analysis. Statistical significance was accepted when P<0.05.

[2] = target: T2, COX-1 (Ovis aries, UniProt P05979); conditions: isolated enzyme preparation; 10 μM arachidonic acid
T2 sequence (P05979 25-600): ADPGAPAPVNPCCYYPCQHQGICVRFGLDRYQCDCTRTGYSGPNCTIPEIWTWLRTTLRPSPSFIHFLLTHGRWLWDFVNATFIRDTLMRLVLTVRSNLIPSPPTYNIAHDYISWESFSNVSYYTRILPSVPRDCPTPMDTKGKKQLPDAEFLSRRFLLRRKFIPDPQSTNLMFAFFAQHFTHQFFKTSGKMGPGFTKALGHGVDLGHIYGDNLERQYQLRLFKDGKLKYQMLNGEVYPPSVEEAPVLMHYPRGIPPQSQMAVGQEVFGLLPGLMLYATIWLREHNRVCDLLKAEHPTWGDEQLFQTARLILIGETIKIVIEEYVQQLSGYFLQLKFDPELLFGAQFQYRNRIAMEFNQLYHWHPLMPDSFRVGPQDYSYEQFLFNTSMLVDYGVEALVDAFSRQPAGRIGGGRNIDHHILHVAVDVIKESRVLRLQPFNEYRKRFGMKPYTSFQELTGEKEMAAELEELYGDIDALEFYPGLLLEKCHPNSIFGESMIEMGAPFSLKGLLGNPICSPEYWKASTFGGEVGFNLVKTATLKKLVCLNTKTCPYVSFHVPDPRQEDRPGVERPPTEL
Description: (§1) COX activity was measured as prostaglandin formation in the presence of 10 μM arachidonic acid.
(§2) COX-1 and COX-2 assays. COX-1 and COX-2 activity was determined in the presence of 10 μM arachidonic acid using a COX (ovine) inhibitor screening assay (Cayman). Drugs were incubated with the enzyme preparation 8 min before application of arachidonic acid. Prostaglandin formation was used as a measure of COX activity and quantified via enzyme immunoassay (EIA).

[3] = target: T3, COX-2 (Ovis aries, UniProt P79208); conditions: isolated enzyme preparation; 10 μM arachidonic acid
T3 sequence (P79208 17-603): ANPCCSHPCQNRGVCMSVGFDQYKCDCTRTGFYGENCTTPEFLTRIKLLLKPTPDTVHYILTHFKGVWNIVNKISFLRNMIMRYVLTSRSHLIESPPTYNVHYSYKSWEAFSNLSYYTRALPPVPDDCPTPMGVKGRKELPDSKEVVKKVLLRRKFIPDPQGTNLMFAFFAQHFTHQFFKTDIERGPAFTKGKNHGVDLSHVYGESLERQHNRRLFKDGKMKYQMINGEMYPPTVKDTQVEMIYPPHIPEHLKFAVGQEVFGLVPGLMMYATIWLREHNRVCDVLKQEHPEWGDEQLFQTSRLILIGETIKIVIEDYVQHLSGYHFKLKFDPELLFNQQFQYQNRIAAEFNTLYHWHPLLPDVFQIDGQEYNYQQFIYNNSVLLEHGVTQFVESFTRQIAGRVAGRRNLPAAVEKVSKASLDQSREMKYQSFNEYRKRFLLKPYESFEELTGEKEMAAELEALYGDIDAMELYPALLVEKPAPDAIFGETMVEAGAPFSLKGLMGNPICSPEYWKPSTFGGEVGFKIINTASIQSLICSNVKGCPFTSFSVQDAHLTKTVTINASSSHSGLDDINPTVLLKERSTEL
Description: as §1, §2

[4] = Description: In vivo experiments. Acetaminophen ([…]) or vehicle (saline) at a volume of 2-3 ml was given to female Wistar-Hannover rats (200-300 g) by an intraperitoneal injection. Some rats were pretreated with PMSF (10 mg kg^−1) or vehicle (saline:PEG 6000; 1:10 w/w) given subcutaneously (2-3 ml) 20 min before administration of acetaminophen. Approximately 20 min after injection of acetaminophen, the animals were killed to collect brain, liver, spinal cord and arterial blood. […] PMSF (0.1 mM) and ascorbic acid (0.3 mM) were also present in the Tris buffer and added to the blood samples to prevent degradation of fatty acid amides and p-aminophenol, respectively.
Quantitative analyses. The extraction residues were reconstituted in 100 μl methanol except for p-aminophenol, for which 100 μl 0.5% acetic acid was used. The quantitative analyses were performed using a Perkin Elmer 200 liquid chromatography system with autosampler (Applied Biosystems), coupled to an API 3000 tandem mass spectrometer (Applied Biosystems/MDS-SCIEX). All mobile phases were water-methanol gradients, containing 0.5% acetic acid, and the flow rate was 200 μl min^−1 except for arachidonic acid where it was 400 μl min^−1.
AM404, arachidonoyldopamine, arachidonoylserotonin and anandamide.
p-Aminophenol. Sample aliquots of 2 μl were injected on a Genesis phenyl column (150×2.1 mm; Jones). The mobile flow was initially 97% water for 2 min. […] The electrospray ion source was set at 450° C. and used in the positive ion mode. The ion spray voltage and declustering potential were set to 4500 volts and 55 volts, respectively. M/z 109.9/64.6 with a collision energy of 31 volts was used for the quantitative determinations.

[5] = test system: AM404 production in brain homogenates; test: Inhibition of AM404 formation in rat brain homogenates; type: biochemical; conditions: 1 hour pre-incubation, p-aminophenol plus arachidonic acid each 100 μM
Description: (§3) Tissue homogenate experiments. The brain, liver, spinal cord and dorsal root ganglia from female Wistar-Hannover rats (250 g) were homogenised in a Tris buffer (10 mM, pH 7.6), containing EDTA (1 mM), to give 90-330 mg tissue ml^−1. We carried out experiments in aliquots of 200 μl homogenate at 37° C. as further explained in the text. The reactions were stopped by adding 1 ml ice-cold acetone containing 1 μM [^2H8]-anandamide. The samples were kept on ice until the acetone phase was evaporated in vacuo.

[6] = test system: anandamide hydrolysis; test: Inhibition of [2H8]-anandamide hydrolysis in rat brain homogenates; type: biochemical; conditions: 1 hour pre-incubation, [2H8]-anandamide 10 μM
Remark: listed apart in the source
Description: as §3
Sample aliquots of 5 μl were injected on a Genesis C18 column (50×2.1 mm; Jones). The HPLC was operated isocratically at 20% water and 80% methanol. The electrospray ion source was operating in the negative ion mode at 370° C., the ion spray voltage was −3000 volts and the declustering potential was −120 volts. M/z 310.8/267.0 with a collision energy of −22 volts was used for the quantitative determinations.

[7] = female, Wistar-Hannover, rat, pH 7.6
Description: as §3
Sample aliquots of 5 μl were injected on a Genesis C8 column (20×2.1 mm; Jones). Initially, the mobile flow was 25% water for 5.5 min. […]
p-Aminophenol. […] M/z 109.9/64.6 with a collision energy of 31 volts was used for the quantitative determinations. […]

[8] = PMSF 10 mg kg^−1 s.c. 20 min before acetaminophen

Structure (SMILES): CCCCC/C=C\C/C=C\C/C=C\C/C=C\CCCC(=O)OCC(O)CO (stereo not drawn) [1-arachidonoylglycerol]
- activation of vanilloid receptors on perivascular sensory nerves [1]: activators

Structure (SMILES): CCCCC/C=C\C/C=C\C/C=C\C/C=C\CCCC(=O)OC(CO)CO [2-arachidonoylglycerol]
- activation of vanilloid receptors on perivascular sensory nerves [1]: activators

Structure (SMILES): CCCCCC=CCC=CCC=CCC=CCCCC(=O)Nc1ccc(O)cc1 [AM404, N-(4-hydroxyphenyl)-5,8,11,14-eicosatetraenamide]
- effect on COX-1 activity [2]: concentration-dependently inhibited
- effect on COX-2 activity [3]: concentration-dependently inhibited
- EC50 [1]: 15.8 nM
- relaxation of arteries pre-treated with capsaicin ([1]; capsaicin 1 μM for 30 min): unable to relax

Structure (SMILES): O=S(=O)(F)Cc1ccccc1 [PMSF, phenyl-methyl-sulphonylfluoride]
- effect on formation of AM404 in brain after acetaminophen [4, 8]: abolished
- reduction of p-aminophenol content in brain after acetaminophen [4, 8]: 48%
- pEC50 for inhibition of the formation of AM404 [5]: 5.41±0.03
- pEC50 for inhibition of the hydrolysis of anandamide [6]: 5.28±0.07
- effect on formation of arachidonoyldopamine and arachidonoylserotonin (PMSF 100 μM added 1 hour before): almost abolished

Structure (SMILES): CC(=O)Nc1ccc(O)cc1 [acetaminophen]
- effect on COX-1 activity [2]: No effect
- effect on COX-2 activity [3]: No effect
- inhibition of the effect of capsaicin (antagonist action on vanilloid receptors) [1]: nor inhibited the effect of capsaicin
- vasorelaxation per se (agonist action on vanilloid receptors) [1]: neither induced vasorelaxation per se
- AM404 in brain, representative chromatogram of one animal ([4]; female, Wistar-Hannover, rat, in vivo, 20 min): 23.4 pmol/g
- AM404 formation in brain homogenates ([7]; 100 μM): did not result in any detectable levels of AM404
- AM404 in brain homogenates ([7]; 1 mM): 14 ± 2.6 pmol/g

Structure (SMILES): CCCCC/C=C\C/C=C\C/C=C\C/C=C\CCCC(=O)NCCc1ccc(O)c(OC)c1 [arachidonoyl-3-methoxytyramine]
- activation of vanilloid receptors on perivascular sensory nerves [1]: activators
- relaxation of arterial segments contracted with phenylephrine [1]: concentration-dependent relaxation

Structure (SMILES): CCCCC/C=C\C/C=C\C/C=C\C/C=C\CCCC(=O)NCCc1ccc(O)cc1 [arachidonoyltyramine]
- activation of vanilloid receptors on perivascular sensory nerves [1]: activators
- relaxation of arterial segments contracted with phenylephrine [1]: concentration-dependent relaxation

Structure (SMILES): Oc1cc2c(cc1O)CN(C(=S)NCCc1ccc(Cl)cc1)CCC2 [capsazepine]
- effect on the vasodilator action of AM404 [1]: inhibited

Structure (SMILES): NCCc1ccc(O)c(O)c1 [dopamine]
- production of arachidonoyldopamine (brain homogenates, dopamine 100 μM plus arachidonic acid 100 μM, 1 hour): substantial amounts

Structure (SMILES): Nc1ccc(O)cc1 [p-aminophenol]
- effect on COX-1 activity [2]: No effect
- effect on COX-2 activity [3]: No effect
- inhibition of the effect of capsaicin (antagonist action on vanilloid receptors) [1]: nor inhibited the effect of capsaicin
- vasorelaxation per se (agonist action on vanilloid receptors) [1]: neither induced vasorelaxation per se

Structure (SMILES): N.N.N.N.N.N.N.N.N.N.N.N.N.N.[Cl-].[Cl-].[Cl-].[Cl-].[Cl-].[Cl-].[O-2].[O-2].[Ru+3].[Ru+3].[Ru+4] [ruthenium red]
- effect on the vasodilator action of AM404 [1]: inhibited

Structure (SMILES): NCCc1c[nH]c2ccc(O)cc12 [serotonin]
- production of arachidonoylserotonin (brain homogenates, serotonin 100 μM plus arachidonic acid 100 μM, 1 hour): substantial amounts
